d = 2'-deoxy (DNA); r = 2'-OH (RNA)
Assays:
[1] = tested on: human ex vivo living colorectal cancer tissue; test: Human ex vivo living tumor tissue culture, TECIA/MTT inhibition rate; format: cell-based; conditions: M1 virus 10^7 PFU, 5-Fu 10 mg/L, 96 hours
Protocol: (§1) The ex vivo living tissue was obtained by surgical excision in Tumor Prevention Center of Sun Yat-sen University, stored at 4 □, and then sent to the laboratory within four hours for drug sensitivity test. All the cases were confirmed by a histopathology examination. Under sterile condition, the tumor tissue was taken out, and cut into tissue pieces with a diameter of 0.5-1 mm, placed onto a 24-well culture plate (4-6 pieces per well), and 1 ml DMEM medium was added into each well. After one hour of culture, a projection illuminated image of the tumor tissue piece was taken by an image analyzer specialized for drug sensitivity test.
(§2) The tumor tissue was cultured in a CO2 cell incubator for 12 hours. […] After 96 hours of the infection treatment, MTT (5 mg/ml) was added at 50 μl/well, and cultured for 3 hours. A diffusion light illuminated image of the tumor tissue piece was then taken by an image analyzer specialized for drug sensitivity test, to determine the blue dyed area by formazan in the tumor piece in each well and the coloring degree (blue area, BA). Then the tissue survival rate (survival fraction, SF) was calculated according the following formula: […]

[2] = tested on: human ex vivo living liver cancer tissues; test: as above; format: cell-based; conditions: M1 virus 10^7 PFU, 5-Fu 10 mg/L, 96 hours
Protocol: as §1, §2

ZAP = ZAP protein expression after ZAP RNA interference fragment (Western blot); format: cell-based, human
Protocol: The cells in the exponential growth phase were selected, and added into a DMEM complete medium (10% fetal bovine serum, 1% double antibody) to prepare a cell suspension, and the cells were inoculated into a 6-well plate at a density of 1×10^5/well. After 24 hours, Si RNA fragment wrapped with RNAiMAX was added. […] After 48 hours of the infection, the specimens were treated.

Molecule	number of cases with inhibition rate (% control) >10% [1]	number of cases with inhibition rate (% control) ≤10% [1]	ratio of cases with inhibition rate (% control) >10% [1]	ratio of cases with inhibition rate (% control) ≤10% [1]	number of cases with inhibition rate (% control) >10% [2]	number of cases with inhibition rate (% control) ≤10% [2]	ratio of cases with inhibition rate (% control) >10% [2]	ratio of cases with inhibition rate (% control) ≤10% [2]	ZAP protein expression quantity (ZAP; HCT116)	ZAP protein expression quantity (ZAP; L-02)	ZAP protein expression quantity (ZAP; PLC)
O=c1[nH]cc(F)c(=O)[nH]1 [5-Fu, 5-fluorouracil]	8	5	61.5%	38.5%	14	12	53.8%	46.2%	–	–	–
ZAP RNA interference fragment: ZAP interference fragment (Si RNA), sense strand SEQ ID No. 8, antisense strand SEQ ID No. 9 (sense CCAAGAGUAGCACUUGUUATT; antisense UAACAAGUGCUACUCUUGGTT; sugars from the 5' end r19 d2, backbone not given here)	–	–	–	–	–	–	–	–	undetectable level	undetectable level	undetectable level
